# Results from publication PMC5500990 (European Journal of Medicinal Chemistry, 2017).
# “Also recorded” adds a separate entry of the source. *1 amine or outer side, *2 acyl side, *3 side chain or, on linkers, in order; H or OH if unused. Where a SMILES comes first, the peptide text is derived from it. Where no end group is shown, it is not given here. [ ]: non-standard residue; d: D form. X1 = C=CC(C)(C)n1cc(C[C@@H](N[*:1])C(=O)[*:2])c2ccccc21; X3 = CCCCCn1cc(C[C@@H](N[*:1])C(=O)[*:2])c2ccccc21; X4 = CCCn1cc(C[C@@H](N[*:1])C(=O)[*:2])c2ccccc21; dTrp(1-Bu) = CCCCn1cc(C[C@@H](N)C(=O)O)c2ccccc21; X2 = CCn1cc(C[C@@H](N[*:1])C(=O)[*:2])c2ccccc21; dTrp(1-Me) = Cn1cc(C[C@@H](N)C(=O)O)c2ccccc21; dNMeF = CN[C@H](Cc1ccccc1)C(=O)O
# Assays:
# [1] = Stability in neat mouse plasma (RP-HPLC); type: in vitro ADME
# Excerpt: When optimising for functional activity there is also a need to assess whether the desired modification will negatively affect the stability of the peptide. Characterisation of the metabolism of peptides is useful to improve their stability in vivo. The finding that a carboxylic acid group, instead of the usual amide, at the C-terminus inactivates the cytotoxicity of 16 (results of 20 - Table 1) may compromise its use in vivo as protein de-amidation reactions are widespread in plasma. Peptides 16 and 19, being the most cytotoxic peptides, were exposed to the conditions of in vitro metabolism in plasma. Peptide 20 lacking the amide group was used as a control. Peptides 16, 19 and 20 were incubated in neat mouse plasma at 37 °C for 48 h. Peptide 2, previously tested over a shorter incubation time, was included for benchmarking purpose.
# Peptides were added to neat mouse plasma at a concentration of 400 μg/ml and incubated as the above conditions stated in Section 5.1. Aliquots (20 μl) were taken at 0, 3, 24 and 48 h. To the 20 μl sample, 80 μl of solution B was added and left for 5 min, prior to 1 min sonication to precipitate plasma proteins. The sample was then centrifuged for 5 min at full speed. Then 80 μl of the supernatant was added to 120 μl of solution A and transferred into a HPLC microvial to be analysed using the C8 column. A linear gradient elution was made starting with 100% of solution A and ending after 30 mins with 100% of solution B, with a flow rate of 1 ml/min and followed at λmax 220 nm. The injection volume was 36 μl. Assays were repeated three independent times. HPLC microvials at 0 and 48 h were characterised by ESIMS using the instrument stated in Section 4.1.
# H69 cells = assay: Cell viability assay using resazurin dye, H69 cells; type: cell-based, human; conditions: for IC50: 48 h; for fold enhancement in cytotoxicity compared to tert-Prenyl^4th-NH2 (2): H69 cell line
# Experimental: (§1) Cell viability was evaluated by treating H69 and DMS79 cells with peptides 13–20 in the 0.1–30 μM range for 48 h, with subsequent use of the resazurin dye cell viability assay. IC50 values (Table 1) for all the peptides were derived from the dose response curves (Fig. S24). Table 1 also presents the IC50 values obtained for 1 and 2 previously. RPMI-1640 (with L-glutamine and NaHCO3) was obtained from Sigma-Aldrich. Heat Inactivated Fetal Bovine Serum (FBS) was obtained from Life Technologies. H69 and DMS79 SCLC cell lines were obtained from as previously stated. Cells were grown in 10% v/v FBS/RPMI-1640 (complete medium) and incubated at 37 °C in humidified air atmosphere of 5% CO2. Both, H69 and DMS79 cells are suspension cells and grow in aggregates. For the experimental part, cells were re-suspended in fresh complete medium. Dulbecco's PBS (without calcium chloride and magnesium chloride) and Resazurin sodium salt were obtained from Sigma-Aldrich. The peptide concentrations were calculated accurately using UV/VIS Spectrometer Perkin Elmer instrument and dilution of the stock concentration was made using 50% v/v FBS/sterile saline. Concentrations prepared were ranged from 0.6 to 0.002 mM. Cells were seeded in 96-well plates at a seeding density of 1 × 10^4 cells/190 μl/well in triplicates. Peptides were then added on the same day and incubated as the above conditions stated in Section 5.1. The amount of peptide solution added into each well was 10 μl, resulting in a final well concentration of 30 to 0.1 μM. Untreated control samples were also prepared. Samples for background fluorescence for the resazurin dye were also prepared using only complete medium. After 48 h incubation, resazurin dye (20 μl; 0.125 mg/ml in PBS) was added to each well and incubated as the above conditions stated in Section 5.1 for 5 h. Then, fluorescence readings were recorded using a Tecan Safire plate reader and % viability calculated. Assays were repeated three independent times. Graphs were generated using GraphPad Prism 7.00 software.
# DMS79 cells = assay: Cell viability assay using resazurin dye, DMS79 cells; type: cell-based, human; conditions: for IC50: 48 h; for fold enhancement in cytotoxicity compared to tert-Prenyl^4th-NH2 (2) / fold reduction in potency/cytotoxicity compared to 16: DMS79 cell line
# Experimental: as §1
# [2] = Stability in S9 liver fraction from mouse with cofactors; type: in vitro ADME; conditions: period of 3 h
# Experimental: Peptides 16 and 19 were further subjected to the S9 liver fraction from mouse in the presence of cofactors for a period of 3 h. This would give further insight into the stability of the peptides towards Phase I and Phase II metabolising enzymes.
# Eppendorf® tubes were used for sample preparations. Chemicals, HPLC microvials, S9 liver fraction (from mouse (CD-1), male, 20 mg/ml protein basis, vial of 1.0 mL) and co-factors: beta-nictoinamide adenine dinucleotide disodium salt hydrate (NADPH), uridine 5’-diphosphoglucuronic acid trisodium salt (UDPGA), L-glutathione (GSH) and adenosine 3’-phosphate 5’-phosphosulfate lithium salt hydrate (PAPS) were obtained from Sigma-Aldrich. RP-HPLC analysis was performed using the instrument, C8 column and solutions (A and B) stated in Section 4.2.
# The preparation and analysis of the samples for peptides stability in the S9 liver fraction from mouse was similar to that for the mouse plasma studies, except that addition of cofactors for enzymes activation was required and the aliquots were taken at 0, 1, 2 and 3 h. The cofactors were added to initiate the study as previously described. Briefly, stock concentrations of NADPH (40 mM), UDPGA (20 mM), GSH (2 mM) and PAPS (2 mg/ml) were prepared using Tris buffer (200 mM) (pH 7.4) containing 2 mM magnesium chloride. […]
# neat mouse plasma = conditions: 37 °C, up to 48 h
# [3] = S9 liver fraction (from mouse (CD-1), male, 20 mg/ml protein basis) with cofactors NADPH, UDPGA, GSH and PAPS; conditions: up to 3 h
# serine protease = conditions: cited from earlier work
compound,measurement,setting,value
"C=CC(C)(C)n1cc(C[C@@H](NC(=O)[C@H](Cc2ccccc2)NC(=O)[C@@H](Cc2c[nH]c3ccccc23)NC(=O)[C@@H](Cc2ccccc2)NC)C(=O)N[C@@H](CC(C)C)C(N)=O)c2ccccc21 [Peptide 2, DMePhe-DTrp-Phe-DTrp(N-tert-prenyl)-Leu-NH2] (H-[dNMeF][dW]F[X1]L-NH2)",% (± SE) of parent peptide to degradation product(s) in plasma studies,"[1]; 37 °C, 0 hr, n = 3",100%
same,% (± SE) of parent peptide to degradation product(s) in plasma studies,"[1]; 37 °C, 24 hrs, n = 3, listed as tert-Prenyl^4th-NH2",~58%
same,"metabolised at 24 h, 400 μg/ml","[1]; after 24 h exposure, read-out: degraded in plasma",~42%
CN[C@H](Cc1ccccc1)C(=O)N[C@H](Cc1c[nH]c2ccccc12)C(=O)N[C@@H](Cc1ccccc1)C(=O)N[C@H](Cc1cn(C)c2ccccc12)C(=O)N[C@@H](CC(C)C)C(N)=O [Peptide 13] (H-[dNMeF][dW]F[dTrp(1-Me)]L-NH2),IC50,H69 cells,3980 ± 220 nM
same,times less active than 2,H69 cells; H69,~1.4 times
same,IC50,DMS79 cells,4030 ± 310 nM
CCn1cc(C[C@@H](NC(=O)[C@H](Cc2ccccc2)NC(=O)[C@@H](Cc2c[nH]c3ccccc23)NC(=O)[C@@H](Cc2ccccc2)NC)C(=O)N[C@@H](CC(C)C)C(N)=O)c2ccccc21 [Peptide 14] (H-[dNMeF][dW]F[X2]L-NH2),IC50,H69 cells,1830 ± 30 nM
same,IC50,DMS79 cells,1920 ± 30 nM
CCCn1cc(C[C@@H](NC(=O)[C@H](Cc2ccccc2)NC(=O)[C@@H](Cc2c[nH]c3ccccc23)NC(=O)[C@@H](Cc2ccccc2)NC)C(=O)N[C@@H](CC(C)C)C(N)=O)c2ccccc21 [Peptide 15] (H-[dNMeF][dW]F[X4]L-NH2),IC50,H69 cells,1570 ± 100 nM
same,IC50,DMS79 cells,1910 ± 30 nM
"CCCCn1cc(C[C@@H](NC(=O)[C@H](Cc2ccccc2)NC(=O)[C@@H](Cc2c[nH]c3ccccc23)NC(=O)[C@@H](Cc2ccccc2)NC)C(=O)N[C@@H](CC(C)C)C(N)=O)c2ccccc21 [Peptide 16, DMePhe-DTrp-Phe-DTrp(N-butyl)-Leu-NH2] (H-[dNMeF][dW]F[dTrp(1-Bu)]L-NH2)",IC50,H69 cells,1010 ± 20 nM
same,fold enhancement in cytotoxicity compared to tert-Prenyl^4th-NH2 (2),H69 cells,~3 fold
same,% (± SE) of parent peptide to degradation product(s) in plasma studies,"[1]; 37 °C, 0 hr, n = 3",100%
same,% (± SE) of parent peptide to degradation product(s) in plasma studies,"[1]; 37 °C, 3 hrs, n = 3",94.30 ± 0.20%
same,% (± SE) of parent peptide to degradation product(s) in plasma studies,"[1]; 37 °C, 24 hrs, n = 3",> 80%
same,% (± SE) of parent peptide to degradation product(s) in plasma studies,"[1]; 37 °C, 24 hrs, n = 3, 1440 min",80.30 ± 0.32%
same,% (± SE) of parent peptide to degradation product(s) in plasma studies,"[1]; 37 °C, 48 hrs, n = 3",68.47 ± 0.23%
same,IC50,DMS79 cells,1430 ± 140 nM
same,fold enhancement in cytotoxicity compared to tert-Prenyl^4th-NH2 (2),DMS79 cells,~3 fold
same,stability in S9 liver fraction (in words),[2],completely stable
CCCCCn1cc(C[C@@H](NC(=O)[C@H](Cc2ccccc2)NC(=O)[C@@H](Cc2c[nH]c3ccccc23)NC(=O)[C@@H](Cc2ccccc2)NC)C(=O)N[C@@H](CC(C)C)C(N)=O)c2ccccc21 [Peptide 17] (H-[dNMeF][dW]F[X3]L-NH2),IC50,H69 cells,1800 ± 100 nM
same,IC50,DMS79 cells,2370 ± 60 nM
CCCCn1cc(C[C@@H](NC(=O)[C@@H](Cc2ccccc2)NC)C(=O)N[C@@H](Cc2ccccc2)C(=O)N[C@H](Cc2c[nH]c3ccccc23)C(=O)N[C@@H](CC(C)C)C(N)=O)c2ccccc21 [Peptide 18] (H-[dNMeF][dTrp(1-Bu)]F[dW]L-NH2),IC50,H69 cells,4050 ± 170 nM
same,IC50,DMS79 cells,3880 ± 150 nM
same,fold reduction in potency/cytotoxicity compared to 16,DMS79 cells,3–4 fold
CCCCn1cc(C[C@@H](NC(=O)[C@H](Cc2ccccc2)NC(=O)[C@@H](Cc2cn(CCCC)c3ccccc23)NC(=O)[C@@H](Cc2ccccc2)NC)C(=O)N[C@@H](CC(C)C)C(N)=O)c2ccccc21 [Peptide 19] (H-[dNMeF][dTrp(1-Bu)]F[dTrp(1-Bu)]L-NH2),IC50,H69 cells,630 ± 50 nM
same,fold enhancement in cytotoxicity compared to tert-Prenyl^4th-NH2 (2),H69 cells,~4.5 fold
same,% (± SE) of parent peptide to degradation product(s) in plasma studies,"[1]; 37 °C, 0 hr, n = 3",100%
same,% (± SE) of parent peptide to degradation product(s) in plasma studies,"[1]; 37 °C, 3 hrs, n = 3",98.67 ± 0.69%
same,% (± SE) of parent peptide to degradation product(s) in plasma studies,"[1]; 37 °C, 24 hrs, n = 3",> 80%
same,% (± SE) of parent peptide to degradation product(s) in plasma studies,"[1]; 37 °C, 24 hrs, n = 3, 1440 min",89.73 ± 0.68%
same,% (± SE) of parent peptide to degradation product(s) in plasma studies,"[1]; 37 °C, 48 hrs, n = 3",81%
same,% (± SE) of parent peptide to degradation product(s) in plasma studies,"[1]; 37 °C, 48 hrs, n = 3, 2880 min",81.00 ± 2.25%
same,IC50,DMS79 cells,2310 ± 120 nM
same,fold enhancement in cytotoxicity compared to tert-Prenyl^4th-NH2 (2),DMS79 cells,~2 fold
same,fold reduction in potency/cytotoxicity compared to 16,DMS79 cells,~1.6 fold
same,stability in S9 liver fraction (in words),[2],completely stable
CCCCn1cc(C[C@@H](NC(=O)[C@H](Cc2ccccc2)NC(=O)[C@@H](Cc2c[nH]c3ccccc23)NC(=O)[C@@H](Cc2ccccc2)NC)C(=O)N[C@@H](CC(C)C)C(=O)O)c2ccccc21 [Peptide 20] (H-[dNMeF][dW]F[dTrp(1-Bu)]L-OH),IC50,H69 cells,> 30000 nM
same,% (± SE) of parent peptide to degradation product(s) in plasma studies,"[1]; 37 °C, 0 hr, n = 3",100%
same,% (± SE) of parent peptide to degradation product(s) in plasma studies,"[1]; 37 °C, 3 hrs, n = 3",100%
same,% (± SE) of parent peptide to degradation product(s) in plasma studies,"[1]; 37 °C, 24 hrs, n = 3",100%
same,% (± SE) of parent peptide to degradation product(s) in plasma studies,"[1]; 37 °C, 48 hrs, n = 3",100%
same,degradation in plasma (in words),"[1]; 37 °C, up to 48 h, RP-HPLC and MS",no sign of degradation; also recorded: complete stability in plasma
same,IC50,DMS79 cells,> 30000 nM
DMePhe-DTrp-Phe-DTrp(N-butyl)-Leu-NH2 (H-[dNMeF][dW]F[dTrp(1-Bu)]L-NH2; SMILES CCCCn1cc(C[C@@H](NC(=O)[C@H](Cc2ccccc2)NC(=O)[C@@H](Cc2c[nH]c3ccccc23)NC(=O)[C@@H](Cc2ccccc2)NC)C(=O)N[C@@H](CC(C)C)C(N)=O)c2ccccc21),cleaved bond,neat mouse plasma,"Leu-NH2, 3 hrs"
same,not cleaved,[3],completely stable in S9 liver fraction (3 h)
DMePhe-DTrp-Phe-DTrp(N-tert-prenyl)-Leu-NH2 (H-[dNMeF][dW]F[X1]L-NH2; SMILES C=CC(C)(C)n1cc(C[C@@H](NC(=O)[C@H](Cc2ccccc2)NC(=O)[C@@H](Cc2c[nH]c3ccccc23)NC(=O)[C@@H](Cc2ccccc2)NC)C(=O)N[C@@H](CC(C)C)C(N)=O)c2ccccc21),cleaved bond,neat mouse plasma,"Leu-NH2, 3 hrs"
[dR]PKP[dF]Q[dW]F[dW]LL-NH2,cleaved bond,serine protease,"Leu-NH2, major"
